Laboratory results reported in PMC1563472, “In vitro growth inhibition of bloodstream forms of Trypanosoma brucei and Trypanosoma congolense by iron chelators” (Kinetoplastid Biology and Disease, 2006).
Where two headings read alike, the source gives them in different places.

Tests used:
[1] = test system: bloodstream forms of T. congolense STIB910; experiment: Alamar Blue growth inhibition assay, T. congolense bloodstream forms; format: cell-based, Trypanosoma congolense; settings: for IC50 ratio T. congolense/HL-60: IC50 ratio of cytotoxic to trypanocidal activity (selectivity index); for IC50: read-out: IC50 T. congolense
Protocol: (§1) The anti-trypanosomal activities and the general cytotoxicities of chelators were evaluated using the Alamar Blue® assay. For each reagent, the 50% inhibitory concentration (IC50) value, i.e. the concentration of a compound necessary to reduce the growth rate of the cells by 50% of that of controls, was determined.
(§2) Bloodstream forms of T. brucei TC221 was derived from the stock 427 [24] and was obtained from Prof. Peter Overath (Max-Planck Institute für Biologie, Tübingen, Germany). The animal origin of the T. brucei stock 427 cannot be definitely clarified anymore. Bloodstream forms of T. congolense STIB910 was cloned from T. congolense STIB249 which was isolated from a lion in Tansania in 1971 [25]. T. congolense STIB910 was kindly provided by Prof. Reto Brun (Swiss Tropical Institute, Switzerland). Human myeloid leukaemia HL-60 cells were obtained from the Deutsche Sammlung von Mikroorganismen und Zellkulturen GmbH (Braunschweig, Germany).
(§3) Bloodstream forms of T. brucei and T. congolense were grown in Baltz medium (EMEM plus 25 mM HEPES, 2.5 mM glucose, 1 mM Na-pyruvate, 0.05 mM hypoxanthine, 0.001 mM thymidine, 0.04 mM adenosine, 0.025 mM bathocuproindisulfonic acid, pH 7.5, 10 ml/l nonessential amino acids (100×)) supplemented with 16.7% heat-inactivated foetal bovine serum and goat serum, respectively, and 0.2 mM 2-mercaptoethanol. Human myeloid leukaemia HL-60 cells were propagated in RPMI 1640 medium supplemented with 2 mM L-glutamine and 10% heat-inactivated foetal bovine serum. All cultures were maintained in a humidified atmosphere containing 5% CO2 at 37°C (T. brucei and HL-60 cells) or at 34°C (T. congolense).
(§4) Cells were seeded into 96-well tissue culture plates in 200 μl medium containing various concentrations of chelators dissolved in H2O (deferoxamine, 2,3-dihydroxybenzoic acid, ethylenediamine-di-o-hydroxyphenylacetic acid, 5-sulfosalicylic acid, tropolone, 5-methyl-tropolone, 2,2'-bipyridine, 1,10-phenanthroline), 99% ethanol (2,4,6-tris(2pyridyl)-1,3,5-triazine, 4,7-diphenyl-1,10-phenanthroline, 8-hydroxyquinoline, dimethylglyoxime, quercetin), or 100% DMSO (bathocuproine). The controls contained the respective solvent alone. […] To ensure that the cells were in logarithmic growth phase during the entire experiment, they were seeded at an initial density of 1 × 10^4 T. brucei/ml, 4 × 10^5 T. congolense/ml, and 1 × 10^5 HL-60/ml, respectively. After 24 h (trypanosomes) or 43 h (HL-60) incubation, 20 μl of the colorimetric viability indicator Alamar Blue® was added to each well. The cells were incubated for a further 24 h (trypanosomes) or 5 h (HL-60) so that the total incubation time was 48 h. Then, the plates were read on a Dynatech MR5000 ELISA reader (Denkendorf, Germany), using a test wavelength of 550 nm and a reference wave length of 630 nm. Each test was set up in duplicate and repeated three times. The IC50 value was determined by linear interpolation according to the method described in [27].

[2] = test system: bloodstream forms of T. brucei 427-221a; experiment: Alamar Blue growth inhibition assay, T. brucei bloodstream forms; format: cell-based, Trypanosoma brucei; settings: for IC50 ratio T. brucei/HL-60: IC50 ratio of cytotoxic to trypanocidal activity (selectivity index); for IC50: read-out: IC50 T. brucei
Protocol: as §1, §2, §3, §4

[3] = test system: human myeloid leukaemia HL-60 cells; experiment: Alamar Blue general cytotoxicity assay, HL-60 cells; format: cell-based; settings: read-out: IC50 HL-60 cells
Protocol: as §1, §2, §3, §4

[4] = test system: bloodstream forms of T. brucei 427-221a; set-up: method as in PMID 11582539; settings: cited from earlier work
[5] = test system: bloodstream forms of T. congolense STIB910; set-up: method as in PMID 11582539; settings: bloodstream forms of T. congolense STIB910, identical experimental conditions; cited from earlier work
[6] = bloodstream forms T. brucei 427-221a, 48 h total incubation, Alamar Blue, 37°C
[7] = human myeloid leukaemia HL-60 cells, 48 h total incubation, Alamar Blue
[8] = Trypanosoma congolense, bloodstream forms T. congolense STIB910, 48 h total incubation, Alamar Blue, 34°C
[9] = Trypanosoma brucei, bloodstream forms T. brucei 427-221a, 48 h total incubation, Alamar Blue, 37°C
[10] = Trypanosoma congolense, STIB910, 48 h

Compound: Cc1ccc(O)c(=O)cc1 [5-Methyl-tropolone]
- IC50 ratio T. congolense/HL-60 [1]: 1.6
- IC50 ([1]; bloodstream forms T. congolense STIB910, 48 h total incubation, Alamar Blue, 34°C): 20 µM
- IC50 ratio T. brucei/HL-60 [2]: 2.0
- IC50 [2, 6]: 15.7 µM
- IC50 [3, 7]: 31.1 µM

Compound: c1ccc(-c2nc(-c3ccccn3)nc(-c3ccccn3)n2)nc1 [2,4,6-Tris(2-pyridyl)-1,3,5-triazine]
- IC50 ratio T. congolense/HL-60 [1]: 1.2
- IC50 [1, 8]: 75 µM
- IC50 ratio T. brucei/HL-60 [2]: 3.2
- IC50 [2, 9]: 28.6 µM
- IC50 [3, 7]: 90.1 µM

Compound: c1ccc(-c2ccccn2)nc1 [2,2'-Bipyridine]
- IC50 [1, 10]: 67 µM
- IC50 ([2]; Trypanosoma brucei, 48 h): 46.2 µM
- IC50 ([3]; Homo sapiens, HL-60, 48 h): 28.3 µM

Compound: O=c1c(O)c(-c2ccc(O)c(O)c2)oc2cc(O)cc(O)c12 [Quercetin]
- IC50 ratio T. congolense/HL-60 [1]: >1.6
- IC50 [1, 8]: 62.6 µM
- IC50 ratio T. brucei/HL-60 [2]: >6.1
- IC50 [2, 9]: 16.3 µM
- IC50 [3, 7]: > 100 µM

Compound: O=C(O)c1cc(S(=O)(=O)O)ccc1O [5-Sulfosalicylic acid]
- IC50 [1, 10]: > 1000 µM
- IC50 ([2]; Trypanosoma brucei, 48 h): > 1000 µM
- IC50 ([3]; Homo sapiens, HL-60, 48 h): > 1000 µM

Compound: Cc1ccc(C(=O)Nc2ccc(S(=O)(=O)O)c3cc(S(=O)(=O)O)cc(S(=O)(=O)O)c23)cc1NC(=O)c1cccc(NC(=O)Nc2cccc(C(=O)Nc3cc(C(=O)Nc4ccc(S(=O)(=O)O)c5cc(S(=O)(=O)O)cc(S(=O)(=O)O)c45)ccc3C)c2)c1 [suramin]
- IC50 ([4]; bloodstream forms of T. brucei 427-221a, identical experimental conditions): 0.4 µM
- IC50 ratio (selectivity index) ([4]; cytotoxic/trypanocidal activity, drug used for sleeping sickness): 1944

Compound: O=C(O)C(NCCNC(C(=O)O)c1ccccc1O)c1ccccc1O (stereo not drawn) [Ethylenediamine-di-o-hydroxyphenylacetic acid]
- IC50 ratio T. brucei/HL-60 [2]: 2.7
- IC50 [2, 6]: 120 µM
- IC50 [3, 7]: 325 µM

Compound: Oc1cccc2cccnc12 [8-Hydroxyquinoline]
- IC50 [1, 10]: 206 µM
- IC50 ([2]; Trypanosoma brucei, 48 h): 2.1 µM
- IC50 ([3]; Homo sapiens, HL-60, 48 h): 7.7 µM

Compound: CC(=O)NCC(=O)O.CC(=O)NCC(=O)O.N=C(N)c1ccc(N=NNc2ccc(C(=N)N)cc2)cc1 [diminazene aceturate]
- IC50 [5]: 0.5 µM

Compound: c1ccc(-c2ccnc3c2ccc2c(-c4ccccc4)ccnc23)cc1 [4,7-Diphenyl-1,10-phenanthroline]
- IC50 [1, 8]: 4.5 µM
- IC50 [2, 9]: 2 µM
- IC50 [3, 7]: 48.3 µM

Compound: c1cnc2c(c1)ccc1cccnc12 [1,10-Phenanthroline]
- IC50 ratio T. congolense/HL-60 [1]: 1.6
- IC50 [1, 8]: 5.3 µM
- IC50 ratio T. brucei/HL-60 [2]: 2.6
- IC50 [2, 9]: 3.3 µM
- IC50 [3, 7]: 8.5 µM

Compound: Cc1cc(-c2ccccc2)c2ccc3c(-c4ccccc4)cc(C)nc3c2n1 [Bathocuproine, 2,9-dimethyl-4,7-diphenyl-1,10-phenanthroline]
- IC50 [1, 8]: > 10 µM
- IC50 ratio T. brucei/HL-60 [2]: >3.3
- IC50 [2, 9]: 3 µM
- IC50 [3, 7]: > 10 µM

Compound: CC(=O)N(O)CCCCCNC(=O)CCC(=O)N(O)CCCCCNC(=O)CCC(=O)N(O)CCCCCN [Deferoxamine]
- IC50 [1, 10]: 3.4 µM
- IC50 ([2]; Trypanosoma brucei, 48 h): 3.3 µM
- IC50 ([3]; Homo sapiens, HL-60, 48 h): 97 µM

Compound: CC(=NO)C(C)=NO [Dimethylglyoxime]
- IC50 [1, 8]: > 100 µM
- IC50 [2, 9]: > 100 µM
- IC50 [3, 7]: > 100 µM

Compound: O=C(O)c1cccc(O)c1O [2,3-Dihydroxybenzoic acid]
- IC50 [2, 9]: 220 µM

Compound: O=c1cccccc1O [Tropolone]
- IC50 ratio T. congolense/HL-60 [1]: 0.3
- IC50 [1, 8]: 18.7 µM
- IC50 ratio T. brucei/HL-60 [2]: 0.5
- IC50 [2, 9]: 12.5 µM
- IC50 [3, 7]: 6.2 µM
